Measurements: ChEMBL document CHEMBL3286254, “Structure-guided discovery of 1,3,5 tri-substituted benzenes as potent and selective matriptase inhibitors exhibiting in vivo antitumor efficacy” (Bioorg Med Chem, 2014)
Values after ≈ are worked out from the molar mass of the structure shown.

Legend:
DU-145 [1] = assay: Antiinvasion activity in human DU145 cells assessed as inhibition of FBS-induced cell invaded to lower surface at 10 uM for 3 days by matrigel assay; assay type: functional; conditions: DU-145, 72 h
[2] = Antiinvasion activity in human LNCaP-C42B4 cells assessed as inhibition of FBS-induced cell invaded to lower surface at 10 uM for 3 days by matrigel assay; assay type: functional; conditions: LNCaP-C42B4, 72 h
PC-3 [3] = assay: Antiinvasion activity in human PC3 cells assessed as inhibition of FBS-induced cell invaded to lower surface at 10 uM for 3 days by matrigel assay; assay type: functional; conditions: PC-3, 72 h
DU-145 [4] = assay: Cytotoxicity against human DU145 cells assessed as inhibition of number of colonies formed in soft agar measured on day 8; assay type: functional, cell-based; conditions: DU-145, 192 h
[5] = Cytotoxicity against human LNCaP-C42B4 cells assessed as inhibition of number of colonies formed in soft agar measured on day 8; assay type: functional, cell-based; conditions: LNCaP-C42B4, 192 h
PC-3 [6] = assay: Cytotoxicity against human PC3 cells assessed as inhibition of number of colonies formed in soft agar measured on day 8; assay type: functional, cell-based; conditions: PC-3, 192 h
[7] = Metabolic stability in mouse liver microsomes assessed as compound remaining after 20 mins; assay type: ADME; conditions: read-out: Stability
[8] = Metabolic stability in rat liver microsomes assessed as compound remaining after 20 mins; assay type: ADME; conditions: read-out: Stability
[9] = Metabolic stability in human liver microsomes assessed as compound remaining after 20 mins; assay type: ADME; conditions: read-out: Stability
[10] = Aqueous solubility of the compound; assay type: physicochemical; conditions: buffer
Cytochrome P450 3A4 = Cytochrome P450 3A4 (Homo sapiens, UniProt P08684); assay: Inhibition of CYP3A4 (unknown origin); assay type: ADME
Sequence of Cytochrome P450 3A4 (P08684 whole entry): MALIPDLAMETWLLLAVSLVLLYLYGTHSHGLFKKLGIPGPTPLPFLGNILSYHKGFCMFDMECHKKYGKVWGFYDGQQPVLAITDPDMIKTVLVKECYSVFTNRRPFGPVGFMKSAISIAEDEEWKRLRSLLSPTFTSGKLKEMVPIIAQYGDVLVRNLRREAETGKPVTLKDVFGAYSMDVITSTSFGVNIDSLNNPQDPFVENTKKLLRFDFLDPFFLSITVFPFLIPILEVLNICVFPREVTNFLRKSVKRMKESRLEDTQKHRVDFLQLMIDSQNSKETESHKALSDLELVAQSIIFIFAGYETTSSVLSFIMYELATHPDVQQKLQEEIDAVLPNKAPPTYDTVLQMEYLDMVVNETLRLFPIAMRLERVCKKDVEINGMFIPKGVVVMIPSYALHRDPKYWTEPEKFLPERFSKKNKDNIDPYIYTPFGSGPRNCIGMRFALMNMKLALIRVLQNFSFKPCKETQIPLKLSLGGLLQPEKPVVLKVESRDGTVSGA

[11] = biological target: T1, Suppressor of tumorigenicity 14 protein (Homo sapiens, UniProt Q9Y5Y6); assay: Inhibition of recombinant matriptase (unknown origin) using Boc-Gln-Ala-Arg-7-amido-4-methyl coumarin hydrobromide
T1 sequence (Q9Y5Y6 whole entry): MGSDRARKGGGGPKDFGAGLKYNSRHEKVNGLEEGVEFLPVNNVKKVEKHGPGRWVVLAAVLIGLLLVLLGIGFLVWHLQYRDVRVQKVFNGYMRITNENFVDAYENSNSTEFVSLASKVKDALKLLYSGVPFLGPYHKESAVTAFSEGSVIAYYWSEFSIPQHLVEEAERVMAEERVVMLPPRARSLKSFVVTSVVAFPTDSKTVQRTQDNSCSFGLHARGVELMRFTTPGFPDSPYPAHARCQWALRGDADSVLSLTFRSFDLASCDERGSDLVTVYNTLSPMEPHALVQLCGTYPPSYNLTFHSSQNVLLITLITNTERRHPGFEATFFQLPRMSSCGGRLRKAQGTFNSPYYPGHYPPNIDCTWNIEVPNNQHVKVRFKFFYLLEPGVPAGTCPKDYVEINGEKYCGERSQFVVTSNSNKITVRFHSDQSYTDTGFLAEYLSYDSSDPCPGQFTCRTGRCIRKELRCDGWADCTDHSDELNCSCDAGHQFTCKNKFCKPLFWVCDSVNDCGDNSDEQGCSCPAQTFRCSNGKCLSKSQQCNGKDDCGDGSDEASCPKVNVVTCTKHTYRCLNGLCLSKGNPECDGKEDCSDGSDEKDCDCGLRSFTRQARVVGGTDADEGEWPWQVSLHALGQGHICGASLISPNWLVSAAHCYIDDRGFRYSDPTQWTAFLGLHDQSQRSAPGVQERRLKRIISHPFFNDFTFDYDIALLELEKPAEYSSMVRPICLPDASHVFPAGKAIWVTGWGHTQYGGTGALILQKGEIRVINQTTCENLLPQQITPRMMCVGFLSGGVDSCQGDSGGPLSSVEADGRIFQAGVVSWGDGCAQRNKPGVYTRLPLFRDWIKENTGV

Cytochrome P450 2D6 = Cytochrome P450 2D6 (Homo sapiens, UniProt P10635); assay: Inhibition of CYP2D6 (unknown origin); assay type: ADME
Sequence of Cytochrome P450 2D6 (P10635 whole entry): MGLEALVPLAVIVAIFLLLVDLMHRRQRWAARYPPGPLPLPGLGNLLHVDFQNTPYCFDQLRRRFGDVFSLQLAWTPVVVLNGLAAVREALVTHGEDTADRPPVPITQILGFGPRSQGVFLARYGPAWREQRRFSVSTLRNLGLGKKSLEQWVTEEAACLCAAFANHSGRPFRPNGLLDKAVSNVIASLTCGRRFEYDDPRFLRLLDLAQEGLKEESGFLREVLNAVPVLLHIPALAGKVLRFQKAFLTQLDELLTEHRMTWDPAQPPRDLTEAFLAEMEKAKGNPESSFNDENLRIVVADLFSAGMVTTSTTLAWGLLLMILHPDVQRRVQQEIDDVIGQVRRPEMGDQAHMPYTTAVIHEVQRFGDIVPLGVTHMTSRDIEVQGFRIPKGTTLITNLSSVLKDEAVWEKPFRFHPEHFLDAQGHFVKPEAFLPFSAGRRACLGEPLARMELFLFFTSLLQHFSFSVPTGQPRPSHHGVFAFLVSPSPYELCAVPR

Cytochrome P450 2C9 = Cytochrome P450 2C9 (Homo sapiens, UniProt P11712); assay: Inhibition of CYP2C9 (unknown origin); assay type: ADME
Sequence of Cytochrome P450 2C9 (P11712 whole entry): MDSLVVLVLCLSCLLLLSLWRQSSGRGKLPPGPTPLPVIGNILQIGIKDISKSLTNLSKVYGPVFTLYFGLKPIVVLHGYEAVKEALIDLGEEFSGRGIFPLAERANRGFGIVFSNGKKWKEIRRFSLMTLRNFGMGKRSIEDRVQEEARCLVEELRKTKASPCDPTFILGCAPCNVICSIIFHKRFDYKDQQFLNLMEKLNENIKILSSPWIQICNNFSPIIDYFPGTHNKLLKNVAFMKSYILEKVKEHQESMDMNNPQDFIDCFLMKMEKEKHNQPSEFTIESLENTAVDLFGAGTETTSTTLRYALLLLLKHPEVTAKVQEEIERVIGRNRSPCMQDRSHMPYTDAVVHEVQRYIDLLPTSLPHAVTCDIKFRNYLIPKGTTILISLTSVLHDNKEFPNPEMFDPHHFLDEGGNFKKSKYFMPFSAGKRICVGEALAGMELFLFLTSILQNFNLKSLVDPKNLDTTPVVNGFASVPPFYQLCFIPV

Cytochrome P450 2C19 = Cytochrome P450 2C19 (Homo sapiens, UniProt P33261); assay: Inhibition of CYP2C19 (unknown origin); assay type: ADME
Sequence of Cytochrome P450 2C19 (P33261 whole entry): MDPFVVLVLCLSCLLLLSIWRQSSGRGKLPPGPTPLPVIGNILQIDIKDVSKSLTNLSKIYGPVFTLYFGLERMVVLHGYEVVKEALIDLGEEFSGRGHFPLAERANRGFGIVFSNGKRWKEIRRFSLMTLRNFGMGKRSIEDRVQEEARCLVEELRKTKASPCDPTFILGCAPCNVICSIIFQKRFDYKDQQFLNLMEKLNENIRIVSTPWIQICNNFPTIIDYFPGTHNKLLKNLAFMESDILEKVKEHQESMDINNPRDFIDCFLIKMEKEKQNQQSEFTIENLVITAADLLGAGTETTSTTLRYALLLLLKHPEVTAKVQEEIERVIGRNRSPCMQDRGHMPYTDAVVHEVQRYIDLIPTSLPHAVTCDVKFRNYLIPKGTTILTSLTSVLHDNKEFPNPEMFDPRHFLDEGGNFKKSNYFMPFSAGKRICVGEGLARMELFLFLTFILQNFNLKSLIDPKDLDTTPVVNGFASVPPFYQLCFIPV

Coagulation factor X = Coagulation factor X (Bos taurus, UniProt P00743); assay: Inhibition of bovine plasma factor 10a using CH3OCO-D-CHA-Gly-Arg-pNA.AcoH substrate
Sequence of Coagulation factor X (P00743 41-180 limits assumed): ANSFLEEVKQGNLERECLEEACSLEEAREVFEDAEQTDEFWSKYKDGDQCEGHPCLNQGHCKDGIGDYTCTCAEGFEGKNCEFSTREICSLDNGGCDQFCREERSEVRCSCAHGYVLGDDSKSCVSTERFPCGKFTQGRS
Sequence of Coagulation factor X (P00743 234-492 limits assumed): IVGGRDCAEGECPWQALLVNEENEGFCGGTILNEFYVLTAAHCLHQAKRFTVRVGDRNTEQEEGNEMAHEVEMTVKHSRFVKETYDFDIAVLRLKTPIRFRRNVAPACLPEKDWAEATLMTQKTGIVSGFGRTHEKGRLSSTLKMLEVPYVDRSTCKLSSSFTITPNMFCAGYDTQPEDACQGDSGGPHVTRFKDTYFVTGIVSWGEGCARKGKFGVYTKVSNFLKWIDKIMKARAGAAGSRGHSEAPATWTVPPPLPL

Prothrombin = Prothrombin (Homo sapiens, UniProt P00734); assay: Inhibition of human thrombin using Boc-Gln-Ala-Arg-7-amido-4-methyl coumarin hydrobromide
Trypsin = Trypsin (Homo sapiens, UniProt P07477+P07478+P35030); assay: Inhibition of human pancreas Trypsin using Boc-Gln-Ala-Arg-7-amido-4-methyl coumarin hydrobromide; assay type: protein assay
DU-145 [12] = assay: Cytotoxicity against human DU145 cells assessed as cell survival at 10 uM after 72 hrs by calcein AM assay; assay type: functional; conditions: DU-145, 72 h, read-out: Activity
[13] = Cytotoxicity against human LNCaP-C42B4 cells assessed as cell survival at 10 uM after 72 hrs by calcein AM assay; assay type: functional; conditions: LNCaP-C42B4, 72 h, read-out: Activity
PC-3 [14] = assay: Cytotoxicity against human PC3 cells assessed as cell survival at 10 uM after 72 hrs by calcein AM assay; assay type: functional; conditions: PC-3, 72 h, read-out: Activity
[15] = Tmax in NMRI mouse at 1 mg/kg, sc; conditions: in vivo
[16] = Cmax in NMRI mouse at 1 mg/kg, sc; conditions: in vivo
[17] = Terminal half life in NMRI mouse at 1 mg/kg, sc; conditions: in vivo, read-out: beta t1/2 (converted)
[18] = AUC (0 to infinity) in NMRI mouse at 1 mg/kg, sc; conditions: plasma
Mus musculus [19] = assay: Toxicity in SCID mouse xenografted with human DU145 cells assessed as clinical signs at 1 mg/kg, sc administered twice daily for 31 days; conditions: in vivo, 744 h
Mus musculus [20] = assay: Toxicity in SCID mouse xenografted with human DU145 cells assessed as body weight change at 1 mg/kg, sc administered twice daily for 31 days; conditions: in vivo, 744 h
Plasminogen = Plasminogen (Homo sapiens, UniProt P00747); assay: Inhibition of human plasmin using pyroGlu-Phe-Lys-pNA.HCl
Sequence of Plasminogen (P00747 97-580 limits assumed): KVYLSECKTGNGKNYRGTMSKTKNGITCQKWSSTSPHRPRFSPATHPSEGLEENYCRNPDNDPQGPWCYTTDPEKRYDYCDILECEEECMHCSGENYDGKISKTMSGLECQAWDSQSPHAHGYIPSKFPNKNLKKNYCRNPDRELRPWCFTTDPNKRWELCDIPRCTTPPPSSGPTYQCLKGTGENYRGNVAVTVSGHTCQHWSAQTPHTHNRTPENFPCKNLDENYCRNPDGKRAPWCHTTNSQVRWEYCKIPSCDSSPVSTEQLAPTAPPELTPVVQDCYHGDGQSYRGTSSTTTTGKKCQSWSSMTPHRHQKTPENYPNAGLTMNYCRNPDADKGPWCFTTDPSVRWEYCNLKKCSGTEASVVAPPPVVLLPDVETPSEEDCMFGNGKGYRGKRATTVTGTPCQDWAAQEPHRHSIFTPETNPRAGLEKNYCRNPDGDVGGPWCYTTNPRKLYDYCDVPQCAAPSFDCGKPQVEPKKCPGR
Sequence of Plasminogen (P00747 581-810 limits assumed): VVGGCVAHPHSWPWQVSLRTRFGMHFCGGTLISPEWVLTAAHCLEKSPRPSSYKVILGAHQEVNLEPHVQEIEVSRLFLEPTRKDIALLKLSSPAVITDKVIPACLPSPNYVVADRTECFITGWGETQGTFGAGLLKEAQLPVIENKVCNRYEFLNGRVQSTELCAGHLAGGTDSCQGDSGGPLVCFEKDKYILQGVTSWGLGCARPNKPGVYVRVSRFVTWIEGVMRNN

DU-145 [21] = assay: Antitumor activity against human DU145 cells xenografted in SCID mouse assessed as tumor growth inhibition at 0.5 mg/kg, sc administered twice daily for 31 days; assay type: functional; conditions: DU-145, sc, 744 h, route subcutaneous, read-out: TGI
Mus musculus [22] = assay: Toxicity in SCID mouse xenografted with human DU145 cells assessed as body weight change at 0.5 mg/kg, sc administered twice daily for 31 days; assay type: organism-based, DU-145; design: dose 0.5 mg/kg, route subcutaneous; conditions: in vivo, 744 h
Mus musculus [23] = assay: Toxicity in SCID mouse xenografted with human DU145 cells assessed as clinical signs at 0.5 mg/kg, sc administered twice daily for 31 days; assay type: organism-based, DU-145; design: dose 0.5 mg/kg, route subcutaneous; conditions: in vivo, 744 h

## N=C(N)c1ccc(Oc2cc(Oc3ccc(C(=N)N)cc3)cc(C(=O)N[C@H]3CC[C@H](N)CC3)c2)cc1
DU-145 [1]
  inhibition at 10 µM: 81%
[2]
  inhibition at 10 µM: 84%
PC-3 [3]
  inhibition at 10 µM: 97%
DU-145 [4]
  EC50: 200 nM
[5]
  EC50: 1360 nM
PC-3 [6]
  EC50: 48 nM
[7]
  remaining at 20 min: 81%
[8]
  remaining at 20 min: 100%
[9]
  remaining at 20 min: 85%
[10]
  solubility: 194 µM (≈ 94.4 µg/mL)
Cytochrome P450 3A4
  IC50: > 30000 nM
[11]
  Ki: 10 nM
Cytochrome P450 2D6
  IC50: > 30000 nM
Cytochrome P450 2C9
  IC50: > 30000 nM
Cytochrome P450 2C19
  IC50: > 30000 nM
Coagulation factor X
  Ki: 516 nM
Prothrombin
  Ki: 2100 nM
Trypsin
  Ki: 1625 nM
DU-145 [12]
  viability at 10 µM: 100%
[13]
  viability at 10 µM: 95%
PC-3 [14]
  viability at 10 µM: 96%
[15]
  Tmax: 0.27 h
[16]
  Cmax: 487 ng/mL
[17]
  half-life: 1.6 h
[18]
  AUC(0-inf): 1000 ng·h/mL
Mus musculus [19]
  Activity: Non-toxic
Mus musculus [20]
  Activity: < 5%

## N=C(N)c1ccc(Oc2cc(Oc3ccc(C(=N)N)cc3)cc(C(=O)N3CCC4CCCCC4C3)c2)cc1 (stereo not drawn)
DU-145 [1]
  inhibition at 10 µM: 45%
[2]
  inhibition at 10 µM: 15%
PC-3 [3]
  inhibition at 10 µM: 47%
[11]
  Ki: 305 nM
Coagulation factor X
  Ki: 336 nM
Prothrombin
  Ki: 501 nM
Plasminogen
  Ki: 1530 nM
Trypsin
  Ki: 232 nM
DU-145 [12]
  viability at 10 µM: 78%
[13]
  viability at 10 µM: 79%
PC-3 [14]
  viability at 10 µM: 87%

## N=C(N)c1ccc(Oc2cc(NC(=O)C3CCN(C(=O)CCN)CC3)cc(Oc3ccc(C(=N)N)cc3)c2)cc1
DU-145 [1]
  inhibition at 10 µM: 94%
[2]
  inhibition at 10 µM: 60%
PC-3 [3]
  inhibition at 10 µM: 37%
DU-145 [4]
  EC50: 130 nM
[5]
  EC50: 1580 nM
PC-3 [6]
  EC50: 580 nM
[11]
  Ki: 61 nM
Coagulation factor X
  Ki: 95 nM
Prothrombin
  Ki: 2680 nM
Plasminogen
  Ki: 2590 nM
Trypsin
  Ki: 541 nM
DU-145 [12]
  viability at 10 µM: 98%
[13]
  viability at 10 µM: 99%
PC-3 [14]
  viability at 10 µM: 80%

## N=C(N)c1ccc(Oc2cc(NC(=O)[C@H]3CC[C@H](N)CC3)cc(Oc3ccc(C(=N)N)cc3)c2)cc1
DU-145 [1]
  inhibition at 10 µM: 98%
[2]
  inhibition at 10 µM: 63%
PC-3 [3]
  inhibition at 10 µM: 86%
DU-145 [4]
  EC50: 41 nM
[5]
  EC50: 1540 nM
PC-3 [6]
  EC50: 105 nM
[7]
  remaining at 20 min: 83%
[8]
  remaining at 20 min: 91%
[9]
  remaining at 20 min: 97%
[10]
  solubility: 200 µM (≈ 97.3 µg/mL)
Cytochrome P450 3A4
  IC50: > 30000 nM
[11]
  Ki: 3 nM
Cytochrome P450 2D6
  IC50: > 30000 nM
Cytochrome P450 2C9
  IC50: > 30000 nM
Cytochrome P450 2C19
  IC50: > 30000 nM
DU-145 [21]
  inhibition in vivo at 0.5 mg/kg: 52%
Mus musculus [22]
  Activity: < 5%
Mus musculus [23]
  Activity: Non-toxic
Coagulation factor X
  Ki: 503 nM
Prothrombin
  Ki: 2220 nM
Trypsin
  Ki: 894 nM
DU-145 [12]
  viability at 10 µM: 100%
[13]
  viability at 10 µM: 90%
PC-3 [14]
  viability at 10 µM: 94%
[15]
  Tmax: 0.75 h
[16]
  Cmax: 484 ng/mL
[17]
  half-life: 3.3 h
[18]
  AUC(0-inf): 1850 ng·h/mL

## N=C(N)c1ccc(Oc2cc(Oc3ccc(C(=N)N)cc3)cc(C(=O)O[C@H]3CC[C@H](N)CC3)c2)cc1
DU-145 [1]
  inhibition at 10 µM: 89%
[2]
  inhibition at 10 µM: 90%
PC-3 [3]
  inhibition at 10 µM: 95%
DU-145 [4]
  EC50: 152 nM
[5]
  EC50: 135 nM
PC-3 [6]
  EC50: 81 nM
[7]
  remaining at 20 min: 24%
[8]
  remaining at 20 min: 34%
[9]
  remaining at 20 min: 54%
[10]
  solubility: 182 µM (≈ 88.7 µg/mL)
Cytochrome P450 3A4
  IC50: > 30000 nM
[11]
  Ki: 1 nM
Cytochrome P450 2D6
  IC50: > 30000 nM
Cytochrome P450 2C9
  IC50: > 30000 nM
Cytochrome P450 2C19
  IC50: > 30000 nM
Coagulation factor X
  Ki: 44 nM
Prothrombin
  Ki: 2470 nM
Trypsin
  Ki: 264 nM
DU-145 [12]
  viability at 10 µM: 92%
[13]
  viability at 10 µM: 95%
PC-3 [14]
  viability at 10 µM: 82%

## N=C(N)c1ccc(Oc2cc(OCc3ccc(Br)cc3)cc(C(=O)N[C@H]3CC[C@H](N)CC3)c2)cc1
DU-145 [1]
  inhibition at 10 µM: 61%
[2]
  inhibition at 10 µM: 76%
PC-3 [3]
  inhibition at 10 µM: 51%
[11]
  Ki: 260 nM
Coagulation factor X
  Ki: 2090 nM
Prothrombin
  Ki: 3970 nM
Trypsin
  Ki: 2064 nM
DU-145 [12]
  viability at 10 µM: 78%
[13]
  viability at 10 µM: 65%
PC-3 [14]
  viability at 10 µM: 93%

## N=C(N)c1ccc(Oc2cc(Oc3ccc(CN)cc3)cc(C(=O)N[C@H]3CC[C@H](N)CC3)c2)cc1
DU-145 [1]
  inhibition at 10 µM: 49%
[2]
  inhibition at 10 µM: 59%
PC-3 [3]
  inhibition at 10 µM: 54%
DU-145 [4]
  EC50: 324 nM
[5]
  EC50: 1700 nM
PC-3 [6]
  EC50: 485 nM
[11]
  Ki: 40 nM
Prothrombin
  Ki: 3130 nM
Trypsin
  Ki: 1541 nM
DU-145 [12]
  viability at 10 µM: 90%
[13]
  viability at 10 µM: 100%
PC-3 [14]
  viability at 10 µM: 63%
